Test results taken from patent publication US6656676B2, “Silver halide color photographic material” (Konica Corporation, priority 2001, dated 2003).

Test: pKa of the oil-soluble basic compound by alkalimetry
Type: physicochemical
Details: ethanol/water solution, alkalimetry at 25° C.
Method: As is commonly known, the pKa value refers to a logarithmic acid dissociation constant (Ka), i.e., pKa=−logKa, which is also called an acid electrolytic dissociation exponent. The pKa value of the oil-soluble basic compound can be determined by the alkalimetry, in the following manner. Thus, 50 mg pf a compound sample is dissolved in 40 ml of ethanol and after adding 10 ml of distilled water thereto, 3 ml of a 0.5 mol/l hydrochloric solution and 12 ml of ethanol are further added. The thus prepared solution is subjected to an alkalimetry at a temperature of 25° C. using an alkaline solution (which is comprised of 2.0 g of sodium hydroxide, 200 ml of distilled water and 800 ml of ethanol) and an automatic titration apparatus (Auto Titrator AUT-301, available from TOA electronics, Ltd.).

pKa	Structure (SMILES)
5	CCCCCCCCCCCCCCOc1ccc(N2CCCCC2)cc1 [Compd.-2]
8.7	CC1(C)CC(OC(=O)CCCCCCCCC(=O)OC2CC(C)(C)NC(C)(C)C2)CC(C)(C)N1 [Compd.-3]
6.2	CCCCCCCCCCCCCCOC(=O)CCN1CCN(CCC(=O)OCCCCCCCCCCCCCC)CC1 [OC-4]
7.2	CCCCCCCCCCCCN1CCN(CCCCCCCCCCCC)CC1 [OC-6]
